Source: US20170231931A1, “PRODUCTS FOR THE TREATMENT AND PREVENTION OF NEUROLOGICAL DISORDERS COURSING WITH A COGNITION DEFICIT OR IMPAIRMENT, AND OF NEURODEGENERATIVE DISEASES” (FUNDACIÓN PARA LA INVESTIGACIÓN MÉDICA APLICADA, priority 2014, published 2017)

Tests used:
[1] = tested on: acetylated histone 3 at Lys9 (AcH3K9); assay: HDAC activity in wild type neurons: Western blot of acetylated histone 3 (AcH3K9) in primary neuronal cultures; assay type: cell-based, mice; settings: 2 h
Experimental: (§1) The cellular assay to determine HDAC activity was assessed by Western blot analysis using a specific antibody against acetylated histone 3 at Lys9 (AcH3K9, Cell Signalling).
Primary neuronal cultures derived from the hippocampus and cortex of embryonic day 16 of wild type mice were used. Tissue was triturated using glass pipettes until neurons were dissociated. Neurons were plated with serum-free neurobasal media with B27 supplement (Invitrogen, Gaithersburg, Md.) and 2 mM L-glutamine on poly-L-lysine-treated (0.1 mg/ml; Sigma) 35 mm dishes.
To determine the concentration-response curve effect of Vorinostat and Tadalafil, cell cultures of 15 days in vitro were treated at different concentrations (10, 100 and 500 nM) during 2 h (Table 5).
Thus, to determine if a synergistic effect on epigenetic mark (AcH3) exists when both compounds are combined, Vorinostat at 50 nM was combined with Tadalafil at different concentrations (12.5, 25, 50, 100 and 200 nM) during 2 h (Table 6).
(§2) Cells were collected in a buffer containing a cold lysis buffer with protease inhibitors (0.2 M NaCl, 0.1 M HEPES (4-(2-hydroxyethyl)-1-piperazineethanesulfonic acid), 10% glycerol, 200 mM NaF, 2 mM Na4P2O7, 5 mM EDTA (ethylenediaminetetraacetic acid), 1 mM EGTA (ethylene glycol tetraacetic acid), 2 mM DTT (dithiothreitol), 0.5 mM PMSF (phenylmethylsulfonyl fluoride), 1 mM Na3VO4 and Complete Protease Inhibitor Cocktail, Roche Diagnostics), centrifuged at 14,000×g 4° C. for 20 min and the supernatant was aliquoted and stored at −80° C. Total protein concentrations were determined using the BioRad Bradford protein assay (BioRad Laboratories).
Protein samples were mixed with Laemmli sample buffer, resolved onto SDS-polyacrylamide gels and transferred to nitrocellulose membrane. The membranes were blocked with 5% milk, 0.05% Tween-20 in PBS (Phosphate-Buffered Saline) or TBS (Tris-Buffered Saline) followed by overnight incubation with the following primary antibodies: rabbit polyclonal anti-acetylated Histone 3 (acetyl K9, Cell Signalling 1:1000), mouse monoclonal anti-actin (Sigma, 1:50000) in the corresponding buffer. Following two washes in TBS/Tween20 and one wash in TBS alone, immunolabeled protein bands were detected by using HRP-conjugated anti-rabbit or anti-mouse antibody (Santa Cruz; dilution 1:5000) following an enhanced chemiluminescence system (ECL, GE Healthcare Bioscience, Buckinghamshire, UK), and autoradiographic exposure to HyperfilmtECL (GE Healthcare Bioscience). Quantity One™ software v.4.6.3 (Bio-Rad) was used for quantification.

[2] = tested on: acetylated histone 3 at Lys9 (AcH3K9); assay: HDAC activity in SHSY-5Y: Western blot of acetylated histone 3 (AcH3K9); assay type: cell-based, human; settings: Vorinostat 10 nM alone, 2 hours, SHSY-5Y cell line
Experimental: as §1
A human neuroblastoma cell line (SHSY-5Y) was also used. Cell line was obtained from ATCC (CRL-2266) (Biedler et al., Cancer Research, 38, 3751-3757 1978) and cultured in 35 mm plates (Becton Dickinson, N.J.). The cells were grown to 90% confluence at 37° C. in an atmosphere of 5% CO2 and in Dulbecco's modified Eagle's medium supplemented with Glutamax (Gibco, Invitrogen, CA), 100 units/ml penicillin/streptomycin, 1× Minimum Essential Media (MEM) non essential amino acids and 10% fetal bovine serum (Gibco, Invitrogen, CA).
as §2, with “Laboratories). […]” for “Laboratories).”

Tg2576 mice [3] = assay: Fear Conditioning (FC) test, memory function in aged-Tg2576 mice; assay type: in vivo; settings: Tg2576 mice (14-16 month), chronic treatment; Vorinostat 12.5 mg/kg i.p., Tadalafil 1 mg/kg p.o.; mean ± standard deviation
Experimental: (§3) The effect on memory function of Vorinostat (12.5 mg/kg, i.p.), Tadalafil (1 mg/Kg p.o.) and the combination (Vorinostat, 12.5 mg/Kg+Tadalafil 1 mg/Kg) was studied in Tg2576 mice (14-16 month) after a chronic treatment of 2-5 weeks by using two different behavioral tasks: the Fear Conditioning (FC) and the Morris water maze (MWM) tests. Tg2576 mice express the human 695-aa isoform of APP (hAPP) containing the Swedish double mutation, which favours AP production.
The behavioural procedure of FC task involved three phases: habituation, training and testing. During habituation phase, mice were habituated to the conditioning box (context) for 5 min with no stimuli presented. 24 hours later (training phase), mice were placed in the training chamber and allowed to explore for 2 min, afterward, a footshock (0.3 mA) unconditioned stimulus was administered (2 s) and 30 s after mice were returned to their home cage.
Mice were returned to the conditioning chamber 24 h after training and allowed to explore the context for 2 min, during which freezing behavior was recorded (contextual long term memory). Freezing scores were expressed as percentages. The conditioning procedure was carried out in a StartFear system (Panlab S.L., Barcelona, Spain) that allows recording and analysis of the signal generated by the animal movement through a high sensitivity Weight Transducer system. […]

Tg2576 mice [4] = assay: Morris water maze (MWM) test, memory retention in aged-Tg2576 mice; assay type: in vivo; settings: Retention phase of MWM test, day 9th, Vorinostat 12.5 mg/Kg i.p., Tadalafil 1 mg/Kg p.o., mean ± standard deviation
Experimental: as §3
The MWM and the revesal_MWM test was used to evaluate spatial memory as previously described (Ricobaraza et al., 2009; Neuropsychopharmacology, 34, 1721-1732 and Ricobaraza et al., 2011, Frontiers in bioscience, 3, 1375-84). After 3 weeks of treatments, groups of animals underwent spatial reference learning and memory testing in the MWM. The water maze was a circular pool (diameter 1.2 m) filled with water maintained at 20° C. and made opaque by the addition of non-toxic white paint. […] In the probe trials the platform was removed from the pool, and the percentage of time spent in the quadrant where the platform was previously set was recorded.
(§4) All trials were monitored by a camera above the center of the pool connected to a SMART-LD program (Panlab S.L., Barcelona, Spain) for subsequent analysis of escape latencies, swimming speed, path length and percent time spent in each quadrant of the pool during probe trials. […]

Tg2576 mice [5] = assay: Reversal MWM after a 4-weeks wash-out period in aged-Tg2576 mice; assay type: in vivo; settings: Retention phase of Reversal_MWM test, day 6th, after 4-weeks wash-out, Vorinostat 12.5 mg/Kg, Tadalafil 1 mg/Kg, mean ± standard deviation
Experimental: as §3
The MWM and the revesal_MWM test was used to evaluate spatial memory as previously described (Ricobaraza et al., 2009; Neuropsychopharmacology, 34, 1721-1732 and Ricobaraza et al., 2011, Frontiers in bioscience, 3, 1375-84). After 3 weeks of treatments, groups of animals underwent spatial reference learning and memory testing in the MWM. […] In the probe trials the platform was removed from the pool, and the percentage of time spent in the quadrant where the platform was previously set was recorded.
After a 4-weeks wash-out period of the drugs, a reversal phase of MWM was carried out. […] Memory retention was analyzed in a probe at day 6.
as §4

Aβ42 = Aβ42 levels in hippocampal extracts of treated Tg2576 mice (sandwich ELISA); assay type: in vivo; settings: Vorinostat 12.5 mg/Kg, Tadalafil 1 mg/Kg, mean ± standard deviation
Experimental: (§5) Amyloid and Tau pathology was analyzed in the hippocampus of treated animals. Hippocampus was weighed and homogenized in 8 mass of ice-cold buffer containing a cold lysis buffer with protease inhibitors (0.2 M NaCl, 0.1 M HEPES (4-(2-hydroxyethyl)-1-piperazineethanesulfonic acid), 10% glycerol, 200 mM NaF, 2 mM Na4P2O7, 5 mM EDTA (ethylenediaminetetraacetic acid), 1 mM EGTA (ethylene glycol tetraacetic acid), 2 mM DTT (dithiothreitol), 0.5 mM PMSF (phenylmethylsulfonyl fluoride), 1 mM Na3VO4 and Complete Protease Inhibitor Cocktail, Roche Diagnostics), centrifuged at 14,000×g 4° C. for 20 min and the supernatant was aliquoted and stored at −80° C. Total protein concentrations were determined using the BioRad Bradford protein assay (BioRad Laboratories).
Aβ42 levels in hippocampal extracts were measured with the 3D6 antibody (specific for amino acids 1-5 of Aβ; kit from Biosource, USA) using a sensitive sandwich ELISA kit from Biosource (Camarillo, Ca, USA) according to the manufacturer's instructions.

pTau = pTau in the hippocampus of treated Tg2576 mice (western blot); assay type: in vivo; settings: Vorinostat 12.5 mg/Kg, Tadalafil 1 mg/Kg, mean ± standard deviation
Experimental: as §5
pTau was analyzed by western blot in the hippocampus of treated animals. […] Following two washes in TBS/Tween20 and one wash in TBS alone, immunolabelled protein bands were detected using HRP-conjugated anti-rabbit or anti-mouse antibodies (diluted 1:5,000 Santa Cruz). Binding was visualised by enhanced chemiluminescence (ECL, GE Healthcare Bioscience, Buckinghamshire, UK) and autoradiographic exposure to Hyperfilm ECL (GE Healthcare Bioscience), using Quantity One™ software v.4.6.3 (Bio-Rad) for quantification.

In the case of `O=C(CCCCCCC(=O)Nc1ccccc1)NO` [Vorinostat, 8-(hydroxyamino)-8-oxo-N-phenyl-octanamide], the “AcH3 increment vs basal (no treatment)” value ([1]; Vorinostat 50 nM alone) is reported as “+ (basal ×1 means no increment (+))”, the “AcH3 increment vs basal (no treatment)” value ([1]; compound alone 10 nM) is reported as “+ (basal ×1 means no increment (+))” and the “AcH3 increment vs basal (no treatment)” value ([1]; compound alone 100 nM) is reported as “++ (basal ×2≦(++))”. The “AcH3 increment vs basal (no treatment)” value ([1]; compound alone 500 nM) was “++ (basal ×2≦(++))”, the “AcH3 increment vs basal (no treatment)” value [2] was “+ (basal ×1 means no increment (+))” and the “FC (% freezing)” value (Tg2576 mice [3]) was 51.17 ± 14.8%. The “MWM (% of time on right quadrant)” value (Tg2576 mice [4]) was 16.3 ± 4.69%, the “RMWM (% of time on right quadrant)” value (Tg2576 mice [5]) was 14.88 ± 5.88% and the “Aβ42 levels in hippocampus” value (Aβ42) was 12.81 ± 4.68 pg/mg. The pTau/tTau in hippocampus (pTau) was 0.56 ± 0.09.

With `CN1CC(=O)N2[C@H](c3ccc4c(c3)OCO4)c3[nH]c4ccccc4c3C[C@@H]2C1=O` [Tadalafil, (6R,12aR)-6-(1,3-Benzodioxol-5-yl)-2-methyl-2,3,6,7,12,12a-hexahydropyrazino[1′,2′: 1,6]pyrido[3,4-b]indole-1,4-dione] the “AcH3 increment vs basal (no treatment)” value ([1]; compound alone 10 nM) was “+ (basal ×1 means no increment (+))”, the “AcH3 increment vs basal (no treatment)” value ([1]; compound alone 100 nM) was “+ (basal ×1 means no increment (+))” and the “AcH3 increment vs basal (no treatment)” value ([1]; compound alone 500 nM) was “+ (basal ×1 means no increment (+))”. For the same compound, the “FC (% freezing)” value (Tg2576 mice [3]) was 41.38 ± 12.3%, the “MWM (% of time on right quadrant)” value (Tg2576 mice [4]) was 23.3 ± 7.63% and the “RMWM (% of time on right quadrant)” value (Tg2576 mice [5]) was 21.26 ± 3.40%. The “Aβ42 levels in hippocampus” value (Aβ42) was 14.89 ± 5.17 pg/mg and the pTau/tTau in hippocampus (pTau) was 0.32 ± 0.03.
